{"source": "patent US20260083864A1", "about": "“CONTRAST AGENTS FOR USE IN DIAGNOSTIC COMPUTED TOMOGRAPHY IMAGING” (Bayer Aktiengesellschaft, priority 2022, published 2026)", "key": {"[1]": {"assay": "Complex stability (transmetallation) against Zn2+ in phosphate buffer", "details": "72 hours, 2.5 mM Zn^2+, 26 mM phosphate buffer, 37° C., pH 7.4", "excerpt": "If test compounds are instable under these conditions, transmetallation during this test would lead to the formation of the Zn^2+ complex of the test item, while Gd^3+ is released and precipitated as highly insoluble GdPO4."}, "[2]": {"test_system": "freshly isolated rat hepatocytes", "assay": "Uptake into freshly isolated rat hepatocytes", "details": "for Uptake rat hepatocytes: 100 μmol Gd/L, 10 min, 37° C., relative to RC1 (Gd-EOB-DTPA); for Inhibition Rifampicine: rat hepatocyte uptake, test item and Rifampicine 1:1, each 100 μM"}, "plasma proteins [3]": {"test_system": "plasma proteins", "assay": "Plasma protein binding, equilibrium dialysis, human", "assay_type": "in vitro ADME", "excerpt": "(§1) The binding of Example 1 and 15 to plasma proteins of different species (human, dog, monkey, rabbit, mouse and rat) was investigated in vitro by using equilibrium dialysis in reusable 96-well Micro-Equilibrium Dialysis Devices (ht dialysis) (Banker M J et al. J Pharm Sci. 2003 May; 92 (5): 967-74)."}, "plasma proteins [4]": {"test_system": "plasma proteins", "assay": "Plasma protein binding, equilibrium dialysis, monkey", "assay_type": "in vitro ADME", "excerpt": "as §1"}, "[5]": {"assay": "Partition coefficient (log P butanol/buffer)", "assay_type": "physicochemical", "details": "1-butanol / 50 mM Tris-HCl, pH 7.4, room temperature"}, "OATP1B1": {"target": "T1, OATP1B1 (Homo sapiens, UniProt Q9Y6L6)", "T1 sequence (Q9Y6L6 1-691)": "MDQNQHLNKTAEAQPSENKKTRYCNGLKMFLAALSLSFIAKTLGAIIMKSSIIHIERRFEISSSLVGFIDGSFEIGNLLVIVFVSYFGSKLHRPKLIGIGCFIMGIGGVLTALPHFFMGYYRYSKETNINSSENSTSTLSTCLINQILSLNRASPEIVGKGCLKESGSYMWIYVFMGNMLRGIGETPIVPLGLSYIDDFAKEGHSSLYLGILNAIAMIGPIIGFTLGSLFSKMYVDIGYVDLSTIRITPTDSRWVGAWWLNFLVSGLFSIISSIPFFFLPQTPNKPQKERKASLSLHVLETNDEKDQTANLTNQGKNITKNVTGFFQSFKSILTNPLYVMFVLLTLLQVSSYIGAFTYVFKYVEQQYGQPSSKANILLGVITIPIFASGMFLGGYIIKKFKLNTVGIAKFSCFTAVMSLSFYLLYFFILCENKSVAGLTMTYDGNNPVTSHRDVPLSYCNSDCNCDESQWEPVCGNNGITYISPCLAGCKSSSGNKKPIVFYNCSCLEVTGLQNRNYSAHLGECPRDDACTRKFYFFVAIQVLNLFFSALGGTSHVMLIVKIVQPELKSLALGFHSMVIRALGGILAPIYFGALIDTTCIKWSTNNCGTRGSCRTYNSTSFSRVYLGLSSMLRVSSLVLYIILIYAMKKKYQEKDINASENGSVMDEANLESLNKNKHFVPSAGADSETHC", "assay": "Uptake into stable transfected OATP1B1 HEK 293 cells", "assay_type": "cell-based", "details": "for Uptake into OATP1B1-HEK 293 cells: 40 min incubation, relative to RC1 (Gd-EOB-DTPA); for Inhibition Rifampicine: uptake into OATP1B1-HEK 293 cells", "procedure,_shortened": "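Uptake measured in triplicate after a 40 min, unshaken exposure of OATP1B1-expressing HEK293 cells to 100 µM (final) compound in transport buffer. Cold PBS wash stopped uptake; Gd-EOB-DTPA served as reference standard within each plate.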"}, "[6]": {"test_system": "cryopreserved human hepatocytes", "assay": "In vitro metabolism in cryopreserved human hepatocytes", "assay_type": "in vitro ADME", "details": "5 μM, incubation time of 4 h, LC-MS", "experimental": "The in vitro metabolism was investigated in cryopreserved human and rat hepatocytes (Li A P et al. Biomark Med. 2014; 8 (2): 173-83). Cryopreserved human (WSS) and rat hepatocytes (Wistar rat, RWH137, male) were incubated with the test compound (incubation concentration: 5 μM). The amount of remaining compound was related to the initial amount (0 mins). The cells were removed from the liquid nitrogen. The vial was immersed in the 37° C. water bath and shaken gently (by hand) until most of the ice was melted (approx. 90 sec.). The cell suspensions were transferred e.g. into a 50 ml-centrifuge tube and 12 ml of 4° C.-cold buffer (e.g. Krebs-Henseleit or Williams Medium E) were added. The cell suspension was centrifuged at 50×g for 5 mins. The buffer was aspirated, and the cells resuspended in 5 ml of fresh warm buffer. An aliquot of 50 μl was mixed with 200 μl trypan blue to determine the cell density and cell viability. The cell suspension was adjusted to a final concentration of 0.8 Mio hepatocytes per mL. The incubations were performed in 96 well plates (1.2 ml volume, negative control without cells). The 0 min samples were stopped immediately by adding 250 μl of ice-cold methanol. All other samples are shaken on an Heidolph®-rotor during incubation in a 37° C. incubator for the indicated period of 4 hours. Aliquots of the samples were used for analysis. All samples were analyzed using LC-MS at 0 h, 1 h, 2 h and 4 h (exemplary LC-MS: Accucore C-18 column, 30° C., 0.35 mL/min flow rate, solvent A: 10 mM Ammonium formate+5% MeCN, pH4 and solvent B: MeCN+0.1% formic acid; […] injection volume, gradient: 90% A, 10% B, 5 min 70% A and 30% B, 8 min 0% A and 100% B)."}, "[7]": {"assay": "In vivo pharmacokinetics following i.v. administration in rat", "experimental": "Pharmacokinetic parameters of Example 1 and 15 and were determined in male and female rats (Han-Wistar, n=4). […] The samples were digested using strong acidic and oxidizing conditions at elevated temperature following dilution in 1% nitric acid to bring the samples in the quantification range of the method. The lower limit of quantitation amounts to 1 nmol/L for all elements and the upper limit to 1000 nmol/L in the diluted sample.\nThe fit of the obtained data to a three-compartment model (Phoenix, WinNonlin 6.4, 3-compartment mode) yielded the pharmacokinetic parameters which are shown in Table 8."}}}
{"smiles": "CCOCCOCCOc1ccc(CC(C(=O)O)N2CCN(CC(=O)[O-])CCN(CC(=O)[O-])CCN(CC(=O)[O-])CC2)cc1.[Gd+3]", "note": "(centres unmarked) [Example 2, gadolinium 2,2′,2″-{10-[1-carboxy-2-{4-[2-(2-ethoxyethoxy)ethoxy]phenyl}ethyl]-1,4,7,10-tetraazacyclododecane-1,4,7-triyl}triacetate]", "values": [{"measurement": "Transmetallation stability", "setting": "[1]", "result": 100, "unit": "%"}, {"measurement": "Uptake rat hepatocytes", "setting": "[2]", "result": "52 % of RC1"}, {"measurement": "Inhibition Rifampicine", "setting": "[2]", "result": 85, "unit": "% inhibition"}, {"measurement": "Fraction unbound fu", "setting": "plasma proteins [3]", "result": ">95", "unit": "%"}, {"measurement": "Fraction unbound fu", "setting": "plasma proteins [4]", "result": ">95", "unit": "%"}, {"measurement": "Log P (partition coefficient butanol/buffer)", "setting": "[5]", "result": "−1.63"}, {"measurement": "Uptake into OATP1B1-HEK 293 cells", "setting": "OATP1B1", "result": "324 % of RC1"}, {"measurement": "Inhibition Rifampicine", "setting": "OATP1B1", "result": 45, "unit": "% inhibition"}, {"measurement": "Metabolites detected", "setting": "[6]", "result": "No metabolites were detected"}]}
{"smiles": "CCOc1ccc(CCOCC(C(=O)O)N2CCN(CC(=O)[O-])CCN(CC(=O)[O-])CCN(CC(=O)[O-])CC2)cc1.[Gd+3]", "note": "(centres unmarked) [Example 1, gadolinium 2,2′,2″-(10-{1-carboxy-2-[2-(4-ethoxyphenyl)ethoxy]ethyl}-1,4,7,10-tetraazacyclododecane-1,4,7-triyl)triacetate]", "values": [{"measurement": "Transmetallation stability", "setting": "[1]", "result": 99, "unit": "%"}, {"measurement": "Uptake rat hepatocytes", "setting": "[2]", "result": "29 % of RC1"}, {"measurement": "Inhibition Rifampicine", "setting": "[2]", "result": 93, "unit": "% inhibition"}, {"measurement": "Fraction unbound fu", "setting": "plasma proteins [3]", "result": 99, "unit": "%"}, {"measurement": "Fraction unbound fu", "setting": "plasma proteins [4]", "result": 94, "unit": "%"}, {"measurement": "Log P (partition coefficient butanol/buffer)", "setting": "[5]", "result": "−0.98"}, {"measurement": "Uptake into OATP1B1-HEK 293 cells", "setting": "OATP1B1", "result": "187 % of RC1"}, {"measurement": "Inhibition Rifampicine", "setting": "OATP1B1", "result": 92, "unit": "% inhibition"}, {"measurement": "Metabolites detected", "setting": "[6]", "result": "No metabolites were detected"}, {"measurement": "AUC∞ Area under the curve", "setting": "[7]; dose 25 μmol/kg bw", "result": 16, "unit": "µM·h"}, {"measurement": "Clplasma Plasma clearance", "setting": "[7]; dose 25 μmol/kg bw", "result": 26.7, "unit": "mL/min/kg"}, {"measurement": "Vss Volume of distribution at steady state", "setting": "[7]; dose 25 μmol/kg bw", "result": 0.4, "unit": "L/kg"}, {"measurement": "t½ α Half-life, compartment V1", "setting": "[7]; dose 25 μmol/kg bw", "result": 1.8, "unit": "min"}, {"measurement": "t½ β Half-life, compartment V2", "setting": "[7]; dose 25 μmol/kg bw", "result": 13, "unit": "min"}, {"measurement": "t½ γ Half-life, compartment V3", "setting": "[7]; dose 25 μmol/kg bw", "result": 114, "unit": "min"}, {"measurement": "AUC∞ Area under the curve", "setting": "[7]; dose 250 μmol/kg bw", "result": 315, "unit": "µM·h"}, {"measurement": "Clplasma Plasma clearance", "setting": "[7]; dose 250 μmol/kg bw", "result": 13, "unit": "mL/min/kg"}, {"measurement": "Vss Volume of distribution at steady state", "setting": "[7]; dose 250 μmol/kg bw", "result": 0.2, "unit": "L/kg"}, {"measurement": "t½ α Half-life, compartment V1", "setting": "[7]; dose 250 μmol/kg bw", "result": 3, "unit": "min"}, {"measurement": "t½ β Half-life, compartment V2", "setting": "[7]; dose 250 μmol/kg bw", "result": 11, "unit": "min"}, {"measurement": "t½ γ Half-life, compartment V3", "setting": "[7]; dose 250 μmol/kg bw", "result": 396, "unit": "min"}]}
{"smiles": "CCOc1ccc(CC(CN(CCN(CC(=O)[O-])CC(=O)[O-])CC(=O)[O-])N(CC(=O)[O-])CC(=O)[O-])cc1.[Gd+3].[Na+].[Na+]", "note": "(centres unmarked) [RC1, gadoxetate disodium, reference compound]", "values": [{"measurement": "Transmetallation stability", "setting": "[1]", "result": 44, "unit": "%"}, {"measurement": "Uptake rat hepatocytes", "setting": "[2]", "result": "100 % of RC1"}, {"measurement": "Inhibition Rifampicine", "setting": "[2]", "result": 97, "unit": "% inhibition"}, {"measurement": "Log P (partition coefficient butanol/buffer)", "setting": "[5]", "result": "−2.12"}, {"measurement": "Uptake into OATP1B1-HEK 293 cells", "setting": "OATP1B1", "result": "100 % of RC1"}, {"measurement": "Inhibition Rifampicine", "setting": "OATP1B1", "result": 81, "unit": "% inhibition"}, {"measurement": "AUCnorm Area under the curve", "setting": "[7]; dose 100 μmol/kg bw", "result": 0.40, "unit": "kg·h/L"}, {"measurement": "Clplasma Plasma clearance", "setting": "[7]; dose 100 μmol/kg bw", "result": 40, "unit": "mL/min/kg"}, {"measurement": "Vss Volume of distribution at steady state", "setting": "[7]; dose 100 μmol/kg bw", "result": 0.9, "unit": "L/kg"}, {"measurement": "t½ α Half-life, compartment V1", "setting": "[7]; dose 100 μmol/kg bw", "result": 2, "unit": "min"}, {"measurement": "t½ β Half-life, compartment V2", "setting": "[7]; dose 100 μmol/kg bw", "result": 8, "unit": "min"}, {"measurement": "t½ γ Half-life, compartment V3", "setting": "[7]; dose 100 μmol/kg bw", "result": 390, "unit": "min"}]}
{"smiles": "CCOCCOCCOc1ccc(CCC[C@@H](C(=O)O)N2CCN([C@@H](CO)C(=O)[O-])CCN([C@@H](CO)C(=O)[O-])CCN([C@@H](CO)C(=O)[O-])CC2)cc1.[Gd+3]", "note": "[Example 15, gadolinium (2S,2′S,2″S)-2,2′,2″-{10-[(1S)-1-carboxy-4-{4-[2-(2-ethoxyethoxy)ethoxy]phenyl}butyl]-1,4,7,10-tetraazacyclododecane-1,4,7-triyl}tris(3-hydroxypropanoate)]", "values": [{"measurement": "Transmetallation stability", "setting": "[1]", "result": 101, "unit": "%"}, {"measurement": "Uptake rat hepatocytes", "setting": "[2]", "result": "109 % of RC1"}, {"measurement": "Inhibition Rifampicine", "setting": "[2]", "result": 94, "unit": "% inhibition"}, {"measurement": "Fraction unbound fu", "setting": "plasma proteins [3]", "result": 86, "unit": "%"}, {"measurement": "Fraction unbound fu", "setting": "plasma proteins [4]", "result": 88, "unit": "%"}, {"measurement": "Log P (partition coefficient butanol/buffer)", "setting": "[5]", "result": "−1.00"}, {"measurement": "Inhibition Rifampicine", "setting": "OATP1B1", "result": 91, "unit": "% inhibition"}, {"measurement": "Metabolites detected", "setting": "[6]", "result": "No metabolites were detected"}, {"measurement": "AUCnorm Area under the curve", "setting": "[7]; dose 25 μmol/kg bw", "result": 0.38, "unit": "kg·h/L"}, {"measurement": "Clplasma Plasma clearance", "setting": "[7]; dose 25 μmol/kg bw", "result": 45, "unit": "mL/min/kg"}, {"measurement": "Vss Volume of distribution at steady state", "setting": "[7]; dose 25 μmol/kg bw", "result": 0.4, "unit": "L/kg"}, {"measurement": "t½ α Half-life, compartment V1", "setting": "[7]; dose 25 μmol/kg bw", "result": 3, "unit": "min"}, {"measurement": "t½ β Half-life, compartment V2", "setting": "[7]; dose 25 μmol/kg bw", "result": 12, "unit": "min"}, {"measurement": "t½ γ Half-life, compartment V3", "setting": "[7]; dose 25 μmol/kg bw", "result": 588, "unit": "min"}]}
